Measured values: patent US9457041B2, “Controlled release nanoparticles and methods of use” (NDSU Research Foundation, priority 2014, dated 2016)

Key:
recombinant human MMP-9 = recombinant human MMP-9 (Homo sapiens, UniProt P14780); assay: CD spectroscopy of triple helicity of nanovesicle-incorporated lipopeptide; assay type: biochemical
Source text: The lipopeptide LP [CH3(CH2)16CONH-[…](GPO)4GG-COOH] was synthesized by employing microwave assisted solid phase peptide synthesizer (Liberty, CEM Corporation, Matthews, S.C.) by following the protocol previously established in our laboratory (Pompella et al., Biochem pharm 2003, 66 (8), 1499-1503). The lipopeptide was purified by reverse phase HPLC (Shimadzu Scientific Instruments) using a diphenyl semi-preparatory column (Grace Vydac, 300 Å pore diameter silica, 5 μm particle size, 10 mm×250 mm) as the stationary phase. A linear gradient (0-70%) of acetonitrile (with 0.1% trifluoroacetic acid) in water (with 0.1% trifluoroacetic acid) was used at a flow rate of 8 mL/min over 60 min. The chromatogram was recorded at 235 nm using a UV detector. After freeze drying the eluents, the peptide was characterized employing MALDI-TOF mass spectrometry with an AB 4800 MALDI TOF/TOF mass analyzer. An observed mass of 2332.3 Da in MALDI spectra confirmed the LP (calculated mass: 2332.2 Da). The collagen mimetic triple helical structure of the lipopeptide was assessed by CD spectrometry employing a Jasco J-815 CD spectrometer with a quartz cuvette of 1 mm path length. The positive peak at 222 nm and the negative peak at 198 nm confirmed the triple helical structure of collagen mimetic peptide.20 For the CD spectroscopic studies, 32 accumulations were recorded for each spectra.

MIAPaCa-2 cells = assay: Alamar Blue assay with a monolayer cell culture; assay type: cell-based; details: Homo sapiens, MIA PaCa-2, MIAPaCa-2 monolayer, 10 μM gemcitabine or equivalent encapsulated, 72 hours
Method: (§1) Pancreatic-cancer cell lines PANC-1 and MIAPaCa-2 were obtained from American Type Culture Collection (Manassas, Va.). PANC-1 cells were cultured in RPMI media (without phenol red) that were supplemented with 2% antibiotics (penicillin, streptomycin) and 10% v/v fetal bovine serum. The MIAPaCa-2 cells were cultured in DMEM media that were supplemented with 2% horse serum and 2% antibiotics. All cell lines were grown at 37° C. in a humidified atmosphere containing 5% CO2.
(§2) Cytotoxicity of the encapsulated gemcitabine was measured by treating the PANC-1 and MIAPaCa-2 cells with nanovesicles. The cells were incubated (1,000 per well) in a 96-well plate after trypsinizing the flask and making a cell suspension. RPMI media (100 μL) were added to each well. Cells were allowed to grow for one doubling time. The plate was divided into three groups: control, gemcitabine treated and gemcitabine-encapsulated nanovesicles treated. Six replicates were recorded for each sample. […] The treatment was carried out for 3 days, and cell toxicity was recorded after 72 hours with the Alamar Blue assay by following the supplier's (Life Technologies) protocol. Alamar Blue solution (10 μL) was added to all the wells and incubated for 2 hours, and the absorbance was recorded at 585 nm for cytotoxicity calculation (FIG. 15).

PANC-1 cells = assay: Alamar Blue assay with a monolayer cell culture; assay type: cell-based; details: Homo sapiens, PANC-1 monolayer, 10 μM gemcitabine or equivalent encapsulated, 72 hours
Method: as §1, §2

recombinant human MMP-9, sequence (P14780 94-707): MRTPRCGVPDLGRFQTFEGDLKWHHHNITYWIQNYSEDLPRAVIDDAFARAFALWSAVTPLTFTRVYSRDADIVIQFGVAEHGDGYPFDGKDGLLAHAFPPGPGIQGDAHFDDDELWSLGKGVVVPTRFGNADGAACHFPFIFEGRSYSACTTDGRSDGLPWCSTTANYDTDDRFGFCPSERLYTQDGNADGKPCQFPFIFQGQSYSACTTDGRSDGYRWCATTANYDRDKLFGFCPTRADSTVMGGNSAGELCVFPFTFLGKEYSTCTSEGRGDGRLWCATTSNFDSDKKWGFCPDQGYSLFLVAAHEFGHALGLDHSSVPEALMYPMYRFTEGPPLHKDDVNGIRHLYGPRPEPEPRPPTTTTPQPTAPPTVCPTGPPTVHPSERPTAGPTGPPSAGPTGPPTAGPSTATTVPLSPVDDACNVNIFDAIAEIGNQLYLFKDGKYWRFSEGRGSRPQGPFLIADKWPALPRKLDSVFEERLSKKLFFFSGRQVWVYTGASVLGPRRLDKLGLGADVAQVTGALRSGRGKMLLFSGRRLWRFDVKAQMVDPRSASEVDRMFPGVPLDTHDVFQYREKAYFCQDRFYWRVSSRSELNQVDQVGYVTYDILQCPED

triple helicity of LP (CD) (recombinant human MMP-9; 2 μM recombinant human MMP-9, 60 minutes) | triple helicity of nanovesicle-incorporated LP (CD) (recombinant human MMP-9; GSH (50 μM), 1 hour) | Compound | viability at 10 µM (MIAPaCa-2 cells) [%] | viability at 10 µM (PANC-1 cells) [%]
considerably reduced | unchanged | CH3(CH2)16CONH-GPQGIAGQR(GPO)4GG-COOH [LP] |  | 
 |  | Nc1ccn([C@@H]2O[C@H](CO)[C@@H](O)C2(F)F)c(=O)n1 [gemcitabine] | 45 to 50 | 30 to 35
